Laboratory results published in patent US20250255847A1, “[…]s: Novel Drugs for Triple Negative Breast Cancer” (SIMMARON RSEARCH INC, priority 2024, published 2025).

Tests used:
[1] = system: TNBC cells; conditions: cited from earlier work
[2] = system: tumor burden; conditions: in vivo; cited from earlier work
[3] = biological target: T1, full-length STAT5b protein (Homo sapiens, UniProt P51692); experiment: Protein thermal shift binding assay with STAT5b; conditions: increasing doses
T1 construct: full-length STAT5b protein melting was assessed with (J) SIM-1, (K) SIM-2, and (L) stattic
T1 sequence (P51692 1-787): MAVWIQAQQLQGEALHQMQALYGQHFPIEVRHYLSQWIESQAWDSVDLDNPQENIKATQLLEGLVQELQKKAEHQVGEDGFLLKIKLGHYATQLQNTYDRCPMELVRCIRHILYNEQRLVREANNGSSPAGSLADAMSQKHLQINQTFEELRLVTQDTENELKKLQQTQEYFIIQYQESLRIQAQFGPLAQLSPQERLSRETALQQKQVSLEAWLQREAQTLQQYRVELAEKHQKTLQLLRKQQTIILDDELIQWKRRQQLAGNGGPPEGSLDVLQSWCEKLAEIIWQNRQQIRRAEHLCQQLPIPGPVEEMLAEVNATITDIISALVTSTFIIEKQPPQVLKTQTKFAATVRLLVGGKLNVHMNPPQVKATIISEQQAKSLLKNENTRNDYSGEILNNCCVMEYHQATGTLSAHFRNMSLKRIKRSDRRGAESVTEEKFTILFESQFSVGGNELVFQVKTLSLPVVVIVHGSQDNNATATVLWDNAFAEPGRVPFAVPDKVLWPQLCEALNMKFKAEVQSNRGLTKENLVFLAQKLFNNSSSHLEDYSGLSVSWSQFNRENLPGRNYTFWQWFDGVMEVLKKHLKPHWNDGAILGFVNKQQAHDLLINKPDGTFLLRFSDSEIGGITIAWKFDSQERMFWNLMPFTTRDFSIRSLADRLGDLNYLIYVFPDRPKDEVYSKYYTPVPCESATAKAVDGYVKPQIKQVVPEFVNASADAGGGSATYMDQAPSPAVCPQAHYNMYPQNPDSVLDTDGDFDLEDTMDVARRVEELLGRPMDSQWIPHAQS
Procedure: (§1) FIG. 5 illustrates an embodiment of the present invention and illustrates evaluations of SIM-1 and SIM-2 as STAT3 inhibitors. (A) Protein thermal shift assay was performed to assess the melting of purified recombinant STAT3 (blue; 0.5 μg protein) (Tm=melting temperature=68.88° C.). The representative melting curves were derived after adding SIM-1 (red; 4 nM), SIM-2 (purple; 8 nM), and positive control stattic (grey; 20 nM) to the STAT3 protein. The differences of melting temperature (ΔTm) between pure protein and protein+ligands are −4.54° C., −4.16° C., and 0.39° C. for SIM-1, SIM-2, and stattic (ΔTm^cut-off>2° C.). (B) Phospho protein array analysis was conducted in cell lysates of MDA-MB-468 cells treated with DMSO control (top left), 25 ng/mL EGF (top right), EGF+10 nM SIM-1 (bottom left), and EGF+SIM-2 (bottom right) for 24 hrs. Each colored arrowhead represents a specific phosphoprotein, and the description was added in the bottom of array images. S=serine and Y=tyrosine. Relative levels of (C) Tyrosine 705 (Y705) phosphorylated STAT3, (D) Serine 727 (S727) phosphorylated STAT3, (E) Tyrosine 693 (Y693) phosphorylated STAT4, (F) Tyrosine 694 ([…]) phosphorylated STAT5A had been derived after normalizing the spot densities (n=5) with respective β-actin spots. Results are mean±SD of five different spot analyses. One-way ANOVA was adopted to test the significance of mean between groups at **p<0.01, and ****p<0.0001. Ns=no significance. Thermal shift assays of increasing doses of (G) SIM-1, (H) SIM-2, and (I) stattic with purified STAT1 protein (0.5 μg protein). The respective ΔTm values were given with the plot after matching with the color code. Similarly, full-length STAT5b protein melting was assessed with (J) SIM-1, (K) SIM-2, and (L) stattic. Results are confirmed after three different experiments.
(§2) To confirm the result, PTS assay of STAT1 with SIM-1 (FIG. 5G), SIM-2 (FIG. 5H), and stattic (FIG. 5I) was performed. […] Similar results were observed while performing the binding assay with STAT5b.

[4] = biological target: T2, STAT3 (Homo sapiens, UniProt P40763); conditions: read-out: IC50 as STAT3 inhibitor; cited from earlier work
Target sequence in this assay (P40763 whole entry, species assumed): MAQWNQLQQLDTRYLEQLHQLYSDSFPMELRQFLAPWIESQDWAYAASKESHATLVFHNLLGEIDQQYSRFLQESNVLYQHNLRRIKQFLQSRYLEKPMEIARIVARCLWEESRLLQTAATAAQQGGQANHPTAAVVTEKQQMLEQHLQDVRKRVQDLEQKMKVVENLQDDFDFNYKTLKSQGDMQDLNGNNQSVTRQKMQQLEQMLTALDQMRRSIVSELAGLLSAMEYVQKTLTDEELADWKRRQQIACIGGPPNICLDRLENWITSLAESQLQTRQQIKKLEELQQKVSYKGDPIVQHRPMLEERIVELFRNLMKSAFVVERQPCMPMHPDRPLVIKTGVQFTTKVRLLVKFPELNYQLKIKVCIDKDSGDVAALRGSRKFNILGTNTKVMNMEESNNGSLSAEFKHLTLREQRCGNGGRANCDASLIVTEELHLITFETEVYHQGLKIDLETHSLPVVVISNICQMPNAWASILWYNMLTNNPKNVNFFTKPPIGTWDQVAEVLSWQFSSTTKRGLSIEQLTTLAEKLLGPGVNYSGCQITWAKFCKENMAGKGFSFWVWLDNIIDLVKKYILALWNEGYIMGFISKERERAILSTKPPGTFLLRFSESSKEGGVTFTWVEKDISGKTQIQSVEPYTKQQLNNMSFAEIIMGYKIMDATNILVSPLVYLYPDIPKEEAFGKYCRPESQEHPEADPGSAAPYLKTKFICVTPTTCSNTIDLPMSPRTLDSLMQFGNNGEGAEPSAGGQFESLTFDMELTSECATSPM

[5] = biological target: T2, STAT3; experiment: Protein thermal shift assay with recombinant STAT3; format: binding; parameters: purchased Active motif 81095
Procedure: as §1
Target sequence in this assay (P40763 whole entry): as the sequence (P40763 whole entry, species assumed) above
FIG. 6 illustrates an embodiment of the present invention and illustrates dose-dependent curves of maximum fluorescence for SIM1 and SIM2. Protein thermal shift assay of recombinant STAT3 was performed with increasing doses of (A) SIM-1, (B) SIM-2, and (C) positive control “Stattic”. The maximum fluorescence for each dose was derived and then plotted in GraphPad Prism software with respective doses. The resultant non-liner hyperbolic curves provide half-maximal binding (EC50) for all three compounds.
This example provides a representative study of the present disclosure to test if SIM1 and SIM2 served as ligands of STAT3. Therefore, the present invention adopted a protein thermal shift assay in which […] of recombinant human STAT3 protein (active motif) was incubated with increasing doses of SIM1 and SIM2 followed by the execution of melting analysis starting from 25 to 95° C. as described elsewhere.

[6] = biological target: T3, purified STAT1 protein (Homo sapiens, UniProt P42224); experiment: Protein thermal shift (PTS) assay of STAT1; format: binding; conditions: 10 and 20 μM
T3 sequence (P42224 1-750): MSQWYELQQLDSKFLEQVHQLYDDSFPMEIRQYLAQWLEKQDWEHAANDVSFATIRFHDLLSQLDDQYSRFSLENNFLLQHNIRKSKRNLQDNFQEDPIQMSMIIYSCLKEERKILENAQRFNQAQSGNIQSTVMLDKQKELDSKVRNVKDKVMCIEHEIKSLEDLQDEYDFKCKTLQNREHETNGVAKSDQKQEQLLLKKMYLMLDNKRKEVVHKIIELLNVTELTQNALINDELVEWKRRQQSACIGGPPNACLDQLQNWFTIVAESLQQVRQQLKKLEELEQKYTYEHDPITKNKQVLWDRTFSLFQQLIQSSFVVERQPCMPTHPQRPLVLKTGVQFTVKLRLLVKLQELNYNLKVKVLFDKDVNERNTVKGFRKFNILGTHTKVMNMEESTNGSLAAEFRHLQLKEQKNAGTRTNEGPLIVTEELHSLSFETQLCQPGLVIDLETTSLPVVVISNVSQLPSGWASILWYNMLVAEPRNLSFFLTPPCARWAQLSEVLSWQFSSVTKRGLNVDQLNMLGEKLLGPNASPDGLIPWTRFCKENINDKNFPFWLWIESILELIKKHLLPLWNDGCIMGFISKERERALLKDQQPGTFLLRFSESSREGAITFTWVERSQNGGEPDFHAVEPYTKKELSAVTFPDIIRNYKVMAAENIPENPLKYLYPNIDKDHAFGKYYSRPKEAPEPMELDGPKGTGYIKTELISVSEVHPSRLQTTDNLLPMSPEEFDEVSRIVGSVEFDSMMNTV
Procedure: as §1, §2

Row | Structure (SMILES) | CT50 [1] | dose effectively reducing tumor burden [2] | doses causing apoptosis of TNBC tumors [1] [µM] | shift in the melting curve of STAT5b [3] | IC50 [4] [µM] | ΔTm of STAT3 ([5]; 20 nM ligand, cut-off 2° C.) [°C] | EC50 ([5]; non-linear hyperbolic binding curve, read-out: EC50 (half-maximal binding, maximum fluorescence versus dose)) [µM] | shift in the melting curve of STAT1 [6]
1 | NC(=O)CC[C@H](NC(=O)[C@@H]1CC[C@@H]2CCN(C(=O)CCCCCC#Cc3cccc4c3CN(C3CCC(=O)NC3=O)C4=O)C[C@H](NC(=O)c3cc4cc(C(F)(F)P(=O)(O)O)ccc4[nH]3)C(=O)N21)C(=O)NC(c1ccccc1)c1ccccc1 (stereo partly drawn) [SD36] | micromolar range | 25-50 mg/Kg body weight (bwt) | – | – | – | – | – | –
2 | O=[N+]([O-])c1ccc2c(c1)S(=O)(=O)C=C2 [stattic, reference compound] | micromolar range | – | 10 to 20 | unable to produce any significant shift | 5 | 0.39 | ~2 | did not produce any shift
